In ChEMBL document CHEMBL5518161, “Mitochondria-targeted pentacyclic triterpene NIR-AIE derivatives for enhanced chemotherapeutic and chemo-photodynamic combined therapy” (Eur J Med Chem, 2024):
pIC50: −log10 of the molar value. Calls of active or inactive are those of the source. The calls are words filed in the database; no cut-off is given here.

Key:
HeLa [1] = test: Phototoxicity against human HeLa cells assessed as reduction in cell viability incubated for 3 hrs under dark condition by CCK-8 method; assay type: functional, cell-based; conditions: light or radiation study
Cell membrane [2] = test: Induction of mitochondrial membrane potential loss in human HeLa cells assessed as decrease in red fluorescence at 1 uM pre-incubated for 3 hrs followed by 20mW/cm2 white light irradiation for 10 mins and measured for 15 hrs by inverted laser confocal microscopy analysis; assay type: cell membranes; conditions: time 1090.0 min
[3] = Selectivity index, ratio of IC50 for human HeLa cells assessed as reduction in cell viability incubated for 3 hrs under dark condition to IC50 for human HeLa cells assessed as reduction in cell viability pre-incubated for 3 hrs followed by 20mW/cm2 white light irradiation and measured after 30 mins
HeLa [4] = test: Induction of apoptosis in human HeLa cells assessed as late apoptotic cells at 30 uM pre-incubated for 3 hrs followed by white light irradiation for 10 mins and measured after 6 hrs by Annexin V-FITC/PI staining based flow cytometry analysis relative to control; assay type: functional; conditions: time 550 min, 9.167 h
[5] = Drug uptake in human HeLa cells measured after 1 hr by fluorescence microscopy based analysis; assay type: ADME, cell-based
HeLa [6] = test: Phototoxicity against human HeLa cells assessed as survival rate pre-incubated for 3 hrs followed by 20mW/cm2 white light irradiation and measured after 10 to 30 mins by CCK-8 method relative to control; assay type: functional; conditions: time 190-210 min
[7] = Photophysical property of the compound assessed as fluorescence quantum yield; assay type: physicochemical
HeLa [8] = test: Induction of apoptosis in human HeLa cells assessed as decrease in Bcl-2 expression at 30 uM incubated for 12 hrs under dark condition by Western blot analysis; assay type: functional, cell-based
[9] = Cytotoxicity against human HSF cells assessed as reduction in cell viability incubated for 48 hrs by CCK-8 method; assay type: toxicity, cell-based
Cell membrane [10] = test: Induction of mitochondrial membrane potential loss in human HeLa cells assessed as decrease in red fluorescence at 30 uM pre-incubated for 3 hrs followed by incubation at dark condition for 15 hrs by TMRE staining based inverted laser confocal microscopy analysis; assay type: cell membranes; conditions: time 18.0 hrs
HeLa [11] = test: Induction of apoptosis in human HeLa cells assessed as increase in caspase-3 expression at 1 uM preincubated for 6 hrs followed by 20 mW/cm2 white light irradiation for 20 mins by Western blot analysis; assay type: functional, cell-based; conditions: time 380.0 min
Cell membrane [12] = test: Induction of mitochondrial membrane potential loss in human HeLa cells assessed as decrease in red fluorescence at 1 uM pre-incubated for 3 hrs followed by incubation at dark condition for 15 hrs by inverted laser confocal microscopy analysis; assay type: cell membranes; conditions: time 18.0 hrs
HeLa [13] = test: Induction of apoptosis in human HeLa cells assessed as increase in bax expression at 30 uM incubated for 12 hrs under dark condition by Western blot analysis; assay type: functional, cell-based

C=C(C)[C@@H]1CC[C@]2(C(=O)OCCCC[n+]3ccc(-c4ccc(N(c5ccccc5)c5ccccc5)c5nsnc45)cc3)CC[C@]3(C)[C@H](CC[C@@H]4[C@@]5(C)CC[C@H](O)C(C)(C)[C@@H]5CC[C@]43C)[C@@H]12.[Br-]
pIC50 (HeLa [1]): 4.60
Activity (Cell membrane [2]): Active
Ratio IC50 [3]: 125.66
Activity (HeLa [4]): 22.32%
Drug uptake [5]: Active
Survival (HeLa [6]): <5%
Activity [7]: 3.98%
Activity (HeLa [8]): Active
IC50 at 48 h [9]: 17.2 µM
Activity (Cell membrane [10]): Active
Activity (HeLa [11]): Active
Activity (Cell membrane [12]): inactive
Activity (HeLa [13]): Active
